Holding throughout (format): functional, cell-based
One assay concerns Vero. Kind of assay: Concentration required to inhibit growth of african green monkey kidney cell line. Particulars: Chlorocebus sabaeus.
The subject of another assay is HeLa. Briefly: Concentration required to inhibit growth of human cervical carcinoma (HeLa) cell line.
The test system of another assay is KB. Kind of assay: Concentration required to inhibit growth of human epidermoid carcinoma (KB) cell line.
In another assay the test system is HepG2. Kind of assay: Concentration required to inhibit growth of human hepatocellular carcinoma (HepG2) cell line.

A value given as a limit tells only on which side of the number the result lay.

Usually IC50 stands for the concentration that inhibits the measured activity by half. Turning to `COc1ccc(OC)c(C(=O)OCC(C)(C)CC2=C(O)C(=O)c3ccccc3C2=O)c1`, the IC50 in the assay on Vero came out at 9.11 µM; with HeLa, 3.42 µM; with KB, 3.38 µM; in the assay with HepG2, 3.54 µM.

`O=C1C=C(CCCOC(=O)c2ccc3ccccc3c2O)C(=O)c2ccccc21`: the IC50 in the assay on Vero, with HeLa, with KB and with HepG2 was over 259 µM each time.

For the compound `CC(C)(COC(=O)c1ccccc1O)CC1=C(O)C(=O)c2ccccc2C1=O`, the IC50 in the assay with Vero was over 136 µM; with HeLa, 4.34 µM; with KB, 4.65 µM; with HepG2 it was 5.44 µM.

With `COc1c(C(=O)OCC(C)(C)CC2=CC(=O)c3ccccc3C2=O)ccc2ccccc12`, the IC50 in the assay on Vero turned out to be 30.4 µM; in the assay on HeLa it was 36.9 µM; with KB, 12.5 µM; in the assay with HepG2, 14.4 µM.

For `CC(C)(COC(=O)c1ccc2ccccc2c1)CC1=C(O)C(=O)c2ccccc2C1=O`, the IC50 is 1.5 µM in the assay on Vero, 1.17 µM in the assay with HeLa, 1.59 µM in the assay on KB and 1.3 µM in the assay on HepG2.

As for `COc1ccc(O)c(C(=O)OCC(C)(C)CC2=C(O)C(=O)c3ccccc3C2=O)c1`, the IC50 with Vero is 11.5 µM; in the assay with HeLa, 3.33 µM; in the assay with KB, 1.18 µM; with HepG2 it was 1.61 µM.

For `COc1c(C(=O)OCC(C)CC2=C(O)C(=O)c3ccccc3C2=O)ccc2ccccc12` (centres undefined), the concentration for half-maximal inhibition (IC50) in the assay with Vero was found to be 0.97 µM; in the assay with HeLa, 0.38 µM; in the assay with KB it was 0.66 µM; with HepG2, 1.04 µM.

On to `CC(COC(=O)c1ccc2ccccc2c1)CC1=CC(=O)c2ccccc2C1=O` (centres undefined), for which the 50% inhibitory concentration (IC50) turned out to be 43.4 µM in the assay with Vero, 38.2 µM in the assay on HeLa, 29 µM in the assay on KB and 27.3 µM with HepG2.

`COC1=C(CC(C)(C)COC(=O)c2ccc3ccccc3c2)C(=O)c2ccccc2C1=O`: the IC50 in the assay with Vero was found to be 47.9 µM; in the assay on HeLa it was 44.9 µM; in the assay on KB, 91.5 µM; with HepG2 it was 127 µM.

On to `COc1cccc2c1C(=O)c1c(O)c3c(c(O)c1C2=O)C[C@@](O)(C(=O)CO)C[C@@H]3O[C@H]1C[C@H](N)[C@H](O)[C@H](C)O1` [DOXORUBICIN], for which the IC50 in the assay on Vero was 23.9 µM; in the assay on HeLa, 0.33 µM; in the assay with KB, 0.03 µM; in the assay with HepG2, 0.4 µM.

As to `COc1cc(C(=O)OCCCC2=C(O)C(=O)c3ccccc3C2=O)c(O)c2ccccc12`, the IC50 in the assay on Vero came out at 40.9 µM; in the assay on HeLa, 4.24 µM; in the assay with KB, 4.09 µM; in the assay on HepG2, 4.28 µM.

Consider `COc1ccc(OC)c(C(=O)OCC(C)CC2=C(O)C(=O)c3ccccc3C2=O)c1` (centres undefined), for which the IC50 with Vero stood at 4.05 µM; in the assay on HeLa, 41.9 µM; in the assay on KB, 37.6 µM; in the assay with HepG2 it was 53.1 µM.

As to `CC(COC(=O)c1ccccc1)CC1=C(O)C(=O)c2ccccc2C1=O` (centres undefined), the IC50 turned out to be 2.31 µM in the assay with Vero, 4.76 µM with HeLa, 4.57 µM in the assay with KB and 8.43 µM with HepG2.

With `COc1cc(C(=O)OCCCC2=CC(=O)c3ccccc3C2=O)c(O)c2ccccc12`, the concentration for half-maximal inhibition (IC50) was 48.5 µM in the assay on Vero, 45.4 µM with HeLa, 93.8 µM with KB and 64.4 µM in the assay with HepG2.

Take `COc1c(C(=O)OCCCC2=CC(=O)c3ccccc3C2=O)ccc2ccccc12`: the half-inhibitory concentration (IC50) in the assay on Vero is 40 µM; in the assay with HeLa it was 47.5 µM; in the assay with KB it was 50 µM; in the assay with HepG2, 54.2 µM.

On to `COc1c(C(=O)OCC(C)(C)CC2=C(O)C(=O)c3ccccc3C2=O)ccc2ccccc12`, for which the IC50 was 17.6 µM in the assay with Vero, 0.23 µM in the assay with HeLa, under 0.22 µM with KB and 0.24 µM with HepG2.

Consider `CC(COC(=O)c1ccc2ccccc2c1O)CC1=CC(=O)c2ccccc2C1=O` (centres undefined), for which the IC50 with Vero stood at 37.9 µM; in the assay with HeLa, 46.2 µM; in the assay with KB it was 38.6 µM; in the assay on HepG2, 42.1 µM.

On to `CC(COC(=O)c1ccc2ccccc2c1)CC1=C(O)C(=O)c2ccccc2C1=O` (centres undefined), for which the IC50 in the assay on Vero was found to be 1.8 µM; in the assay with HeLa it was 4.25 µM; with KB it was 3.58 µM; in the assay on HepG2, 3.7 µM.

`CC(C)(CO)CC1=C(O)C(=O)c2ccccc2C1=O` showed an IC50 in the assay with KB of 11.2 µM.

Consider `COc1cc(C(=O)OCC(C)CC2=C(O)C(=O)c3ccccc3C2=O)c(O)c2ccccc12` (centres undefined), for which the concentration for half-maximal inhibition (IC50) in the assay on Vero is under 0.22 µM; in the assay on HeLa, 2.83 µM; with KB, 2.16 µM; with HepG2, 3.14 µM.

On to `COc1c(C(=O)OCC(C)CC2=CC(=O)c3ccccc3C2=O)ccc2ccccc12` (centres undefined), for which the IC50 in the assay with Vero worked out at 20.2 µM; with HeLa, 39.5 µM; with KB, 26.4 µM; in the assay on HepG2, 39.5 µM.

Consider `COc1cc(C(=O)OCC(C)(C)CC2=C(O)C(=O)c3ccccc3C2=O)c(OC)c2ccccc12`, for which the IC50 in the assay with Vero stood at 32.7 µM; in the assay with HeLa, 1.09 µM; in the assay with KB it was 0.35 µM; in the assay on HepG2, 0.97 µM.

Consider `COc1cc(C(=O)OCC(C)(C)CC2=C(O)C(=O)c3ccccc3C2=O)c(O)c2ccccc12`, for which the IC50 is 12.7 µM in the assay with Vero, 0.3 µM with HeLa, under 0.22 µM in the assay with KB and 0.38 µM with HepG2.

Regarding `COC1=C(CC(C)(C)COC(=O)c2cc(OC)ccc2OC)C(=O)c2ccccc2C1=O`, the IC50 in the assay on Vero is 13.4 µM; with HeLa, 38.8 µM; in the assay with KB, 14.9 µM; in the assay on HepG2, 40.7 µM.

Take `CC(C)(COC(=O)c1cc(O)ccc1O)CC1=C(O)C(=O)c2ccccc2C1=O`: the IC50 in the assay with Vero was 77 µM; in the assay with HeLa it was 45.5 µM; with KB, 64.4 µM; with HepG2, 47.6 µM.

Turning to `CC(C)(COC(=O)c1ccc2ccccc2c1O)CC1=CC(=O)c2ccccc2C1=O`, the IC50 was determined as 90.8 µM in the assay on Vero, 45.9 µM in the assay on HeLa, 38.2 µM with KB and 48.3 µM in the assay on HepG2.

In the case of `CC(COC(=O)c1ccc2ccccc2c1O)CC1=C(O)C(=O)c2ccccc2C1=O` (centres undefined), the IC50 in the assay with Vero was determined as 0.7 µM; with HeLa, 3.97 µM; in the assay with KB, 1.06 µM; in the assay with HepG2, 1 µM.

For `COc1ccccc1C(=O)OCC(C)(C)CC1=C(O)C(=O)c2ccccc2C1=O`, the half-inhibitory concentration (IC50) with Vero came to 8.98 µM; with HeLa it was 4.04 µM; in the assay with KB, 1.86 µM; with HepG2, 4.72 µM.

Regarding `COc1c(C(=O)OCCCC2=C(O)C(=O)c3ccccc3C2=O)ccc2ccccc12`, the IC50 in the assay with Vero came out at 120 µM; in the assay on HeLa, 42.9 µM; with KB it was 33.7 µM; with HepG2, 45.7 µM.

Regarding `CC(C)(COC(=O)c1ccc2ccccc2c1O)CC1=C(O)C(=O)c2ccccc2C1=O`, the IC50 in the assay on Vero was 1 µM; in the assay on HeLa, under 0.23 µM; in the assay with KB, under 0.23 µM; in the assay on HepG2, 0.32 µM.

Regarding `COc1cc(C(=O)OCCCC2=C(O)C(=O)c3ccccc3C2=O)c(OC)c2ccccc12`, the IC50 worked out at 75.4 µM in the assay with Vero, 32.3 µM with HeLa, 12.8 µM in the assay with KB and 35.9 µM in the assay with HepG2.

Regarding `COc1ccc(O)c(C(=O)OCC(C)CC2=C(O)C(=O)c3ccccc3C2=O)c1` (centres undefined), the IC50 was 14 µM with Vero, 4.55 µM in the assay with HeLa, 4.04 µM in the assay with KB and 4.96 µM in the assay on HepG2.

Take `COc1cc(C(=O)OCCCC2=CC(=O)c3ccccc3C2=O)c(OC)c2ccccc12`: the IC50 in the assay on Vero, in the assay with HeLa, with KB and in the assay with HepG2 was over 233 µM in each case.

Turning to `COc1ccccc1C(=O)OCC(C)CC1=C(O)C(=O)c2ccccc2C1=O` (centres undefined), the IC50 was found to be 29.8 µM in the assay with Vero, 4.12 µM in the assay with HeLa, 1.64 µM with KB and 4.04 µM in the assay on HepG2.

For the compound `COC1=C(CC(C)(C)COC(=O)c2ccc3ccccc3c2OC)C(=O)c2ccccc2C1=O`, the IC50 with Vero was found to be 5.96 µM; with HeLa, 9.47 µM; with KB, 10.1 µM; in the assay with HepG2, 11.5 µM.

With `CC(C)(COC(=O)c1ccccc1)CC1=C(O)C(=O)c2ccccc2C1=O`, the IC50 came out at 48.6 µM in the assay with Vero, 3.02 µM with HeLa, 1.53 µM in the assay with KB and 4.85 µM in the assay on HepG2.

`CC(COC(=O)c1ccccc1O)CC1=C(O)C(=O)c2ccccc2C1=O` (centres undefined): the IC50 was 75.9 µM in the assay with Vero, 10.3 µM in the assay on HeLa, 4.65 µM in the assay on KB and 11.6 µM in the assay on HepG2.

For `O=C1C(=O)c2ccccc2C(O)=C1CCCOC(=O)c1ccc2ccccc2c1O`, the IC50 was 124 µM in the assay with Vero, 15.1 µM in the assay on HeLa, 12.3 µM in the assay on KB and 16.2 µM in the assay with HepG2.

On to `COC1=C(CC(C)(C)COC(=O)c2ccccc2)C(=O)c2ccccc2C1=O`, for which the IC50 turned out to be 34.8 µM with Vero, 40.6 µM with HeLa, 43 µM in the assay with KB and 46.7 µM with HepG2.

In the case of `CC(C)(COC(=O)c1ccc2ccccc2c1)CC1=CC(=O)c2ccccc2C1=O`, the 50% inhibitory concentration (IC50) was found to be 33.3 µM in the assay on Vero, 41.2 µM with HeLa, 32 µM in the assay on KB and 45.2 µM in the assay on HepG2.

As for `COc1cc(C(=O)OCC(C)CC2=C(O)C(=O)c3ccccc3C2=O)c(OC)c2ccccc12` (centres undefined), the IC50 with Vero is 5.91 µM; with HeLa, 3.8 µM; in the assay on KB it was 3.52 µM; in the assay on HepG2, 3.65 µM.

Take `O=C1C(=O)c2ccccc2C(O)=C1CCCOC(=O)c1ccc2ccccc2c1`: the IC50 with Vero was 24 µM; in the assay on HeLa, 15.8 µM; in the assay with KB, 14.4 µM; in the assay with HepG2, 15.5 µM.

In the case of `O=C(OCCCC1=CC(=O)c2ccccc2C1=O)c1ccc2ccccc2c1`, the IC50 stood at 14.9 µM with Vero, 12.9 µM in the assay on HeLa, 13.7 µM in the assay with KB and 10.2 µM with HepG2.

As for `CC(CO)CC1=C(O)C(=O)c2ccccc2C1=O` (centres undefined), it took 59.4 µM to reach half-maximal inhibition in the assay on KB (IC50).

As to `CC(C)(COC(=O)c1cc(O)c2ccccc2c1O)CC1=C(O)C(=O)c2ccccc2C1=O`, the IC50 is 15.4 µM with Vero, 12.4 µM with HeLa, 4.22 µM in the assay on KB and 12.9 µM in the assay with HepG2.
